Patent US20260070903A1, “NOVEL PYRIDO[3,4-D]PYRIMIDIN-8-ONE DERIVATIVE HAVING PROTEIN KINASE INHIBITORY ACTIVITY, AND PHARMACEUTICAL COMPOSITION FOR PREVENTING, ALLEVIATING, OR TREATING CANCER, COMPRISING SAME” (KOREA INSTITUTE OF SCIENCE AND TECHNOLOGY, priority 2019, published 2026)

Columns and labels:
ACK1 = ACK1 (Homo sapiens, UniProt Q07912); test: Inhibitory activity against ACK1 kinase (IC50); assay type: biochemical
Procedure: The inhibitory activities of the compounds of the present disclosure against two kinases, GCK and ACK1, were measured, and the IC50 values thereof were calculated.

OCI-AML3 (N-Ras Q61L) = test: Proliferation inhibitory activity, OCI-AML3; assay type: cell-based, human; details: Homo sapiens, OCI-AML-3
Procedure: The inhibitory activities of the compounds of the present disclosure against the proliferation of the mt-NRAS (G12D) Ba/F3 and OCI-AML3 (mt-NRAS) cell lines were measured and the GI50 values thereof were calculated.

ABL2 = ABL2 (Homo sapiens, UniProt P42684); test: Kinase panel biochemical assay, ABL2; details: single concentration of 1 μM, read-out: percent inhibition of kinase
Procedure: (§1) As a test compound, Compound No. 55 was used. The percent inhibition of each kinase when treated with the test compound at a single concentration of 1 μM was measured, and the residual enzyme activity values (%) of the kinases were calculated. Kinases whose calculated residual enzyme activity values (%) was 30% or less (i.e., kinases inhibited by 70% or more) are as follows: […]

BLK = BLK (Homo sapiens, UniProt P51451); test: Kinase panel biochemical assay, BLK; details: single concentration of 1 μM, read-out: percent inhibition of kinase
Procedure: as §1

BMX = BMX (Homo sapiens, UniProt P51813); test: Kinase panel biochemical assay, BMX; details: single concentration of 1 μM, read-out: percent inhibition of kinase
Procedure: as §1

BRK = BRK (Homo sapiens, UniProt Q13882); test: Kinase panel biochemical assay, BRK; details: single concentration of 1 μM, read-out: percent inhibition of kinase
Procedure: as §1

c-Src = c-Src (Homo sapiens, UniProt P12931); test: Kinase panel biochemical assay, c-Src; details: single concentration of 1 μM, read-out: percent inhibition of kinase
Procedure: as §1

CSK = CSK (Homo sapiens, UniProt P41240); test: Kinase panel biochemical assay, CSK; details: single concentration of 1 μM, read-out: percent inhibition of kinase
Procedure: as §1

DDR1 = DDR1 (Homo sapiens, UniProt Q08345); test: Kinase panel biochemical assay, DDR1; details: single concentration of 1 μM, read-out: percent inhibition of kinase
Procedure: as §1

DDR2 = DDR2 (Homo sapiens, UniProt Q16832); test: Kinase panel biochemical assay, DDR2; details: single concentration of 1 μM, read-out: percent inhibition of kinase
Procedure: as §1

EPHA2 = EPHA2 (Homo sapiens, UniProt P29317); test: Kinase panel biochemical assay, EPHA2; details: single concentration of 1 μM, read-out: percent inhibition of kinase
Procedure: as §1

EPHA3 = EPHA3 (Homo sapiens, UniProt P29320); test: Kinase panel biochemical assay, EPHA3; details: single concentration of 1 μM, read-out: percent inhibition of kinase
Procedure: as §1

EPHA4 = EPHA4 (Homo sapiens, UniProt P54764); test: Kinase panel biochemical assay, EPHA4; details: single concentration of 1 μM, read-out: percent inhibition of kinase
Procedure: as §1

EPHA5 = EPHA5 (Homo sapiens, UniProt P54756); test: Kinase panel biochemical assay, EPHA5; details: single concentration of 1 μM, read-out: percent inhibition of kinase
Procedure: as §1

EPHA7 = EPHA7 (Homo sapiens, UniProt Q15375); test: Kinase panel biochemical assay, EPHA7; details: single concentration of 1 μM, read-out: percent inhibition of kinase
Procedure: as §1

EPHB1 = EPHB1 (Homo sapiens, UniProt P54762); test: Kinase panel biochemical assay, EPHB1; details: single concentration of 1 μM, read-out: percent inhibition of kinase
Procedure: as §1

EPHB2 = EPHB2 (Homo sapiens, UniProt P29323); test: Kinase panel biochemical assay, EPHB2; details: single concentration of 1 μM, read-out: percent inhibition of kinase
Procedure: as §1

EPHB3 = EPHB3 (Homo sapiens, UniProt P54753); test: Kinase panel biochemical assay, EPHB3; details: single concentration of 1 μM, read-out: percent inhibition of kinase
Procedure: as §1

EPHB4 = EPHB4 (Homo sapiens, UniProt P54760); test: Kinase panel biochemical assay, EPHB4; details: single concentration of 1 μM, read-out: percent inhibition of kinase
Procedure: as §1

FLT1 = FLT1 (Homo sapiens, UniProt P17948); test: Kinase panel biochemical assay, FLT1; details: single concentration of 1 μM, read-out: percent inhibition of kinase
Procedure: as §1

FLT4 = FLT4 (Homo sapiens, UniProt P35916); test: Kinase panel biochemical assay, FLT4; details: single concentration of 1 μM, read-out: percent inhibition of kinase
Procedure: as §1

FYN = FYN (Homo sapiens, UniProt P06241); test: Kinase panel biochemical assay, FYN; details: single concentration of 1 μM, read-out: percent inhibition of kinase
Procedure: as §1

JAK2 = JAK2 (Homo sapiens, UniProt O60674); test: Kinase panel biochemical assay, JAK2; details: single concentration of 1 μM, read-out: percent inhibition of kinase
Procedure: as §1

KDR = KDR (Homo sapiens, UniProt P35968); test: Kinase panel biochemical assay, KDR; details: single concentration of 1 μM, read-out: percent inhibition of kinase
Procedure: as §1

LCK = LCK (Homo sapiens, UniProt P06239); test: Kinase panel biochemical assay, LCK; details: single concentration of 1 μM, read-out: percent inhibition of kinase
Procedure: as §1

LYN = LYN (Homo sapiens, UniProt P07948); test: Kinase panel biochemical assay, LYN; details: single concentration of 1 μM, read-out: percent inhibition of kinase
Procedure: as §1

p38b = p38b (Homo sapiens, UniProt Q15759); test: Kinase panel biochemical assay, p38b; details: single concentration of 1 μM, read-out: percent inhibition of kinase
Procedure: as §1

RAF1 = RAF1 (Homo sapiens, UniProt P04049); test: Kinase panel biochemical assay, RAF1; details: single concentration of 1 μM, read-out: percent inhibition of kinase
Procedure: as §1

RIPK3 = RIPK3 (Homo sapiens, UniProt Q9Y572); test: Kinase panel biochemical assay, RIPK3; details: single concentration of 1 μM, read-out: percent inhibition of kinase
Procedure: as §1

SRMS = SRMS (Homo sapiens, UniProt Q9H3Y6); test: Kinase panel biochemical assay, SRMS; details: single concentration of 1 μM, read-out: percent inhibition of kinase
Procedure: as §1

TIE2 = TIE2 (Homo sapiens, UniProt Q02763); test: Kinase panel biochemical assay, TIE2; details: single concentration of 1 μM, read-out: percent inhibition of kinase
Procedure: as §1

ZAK = ZAK (Homo sapiens, UniProt Q9NYL2); test: Kinase panel biochemical assay, ZAK; details: single concentration of 1 μM, read-out: percent inhibition of kinase
Procedure: as §1

ZAK, sequence (Q9NYL2 whole entry): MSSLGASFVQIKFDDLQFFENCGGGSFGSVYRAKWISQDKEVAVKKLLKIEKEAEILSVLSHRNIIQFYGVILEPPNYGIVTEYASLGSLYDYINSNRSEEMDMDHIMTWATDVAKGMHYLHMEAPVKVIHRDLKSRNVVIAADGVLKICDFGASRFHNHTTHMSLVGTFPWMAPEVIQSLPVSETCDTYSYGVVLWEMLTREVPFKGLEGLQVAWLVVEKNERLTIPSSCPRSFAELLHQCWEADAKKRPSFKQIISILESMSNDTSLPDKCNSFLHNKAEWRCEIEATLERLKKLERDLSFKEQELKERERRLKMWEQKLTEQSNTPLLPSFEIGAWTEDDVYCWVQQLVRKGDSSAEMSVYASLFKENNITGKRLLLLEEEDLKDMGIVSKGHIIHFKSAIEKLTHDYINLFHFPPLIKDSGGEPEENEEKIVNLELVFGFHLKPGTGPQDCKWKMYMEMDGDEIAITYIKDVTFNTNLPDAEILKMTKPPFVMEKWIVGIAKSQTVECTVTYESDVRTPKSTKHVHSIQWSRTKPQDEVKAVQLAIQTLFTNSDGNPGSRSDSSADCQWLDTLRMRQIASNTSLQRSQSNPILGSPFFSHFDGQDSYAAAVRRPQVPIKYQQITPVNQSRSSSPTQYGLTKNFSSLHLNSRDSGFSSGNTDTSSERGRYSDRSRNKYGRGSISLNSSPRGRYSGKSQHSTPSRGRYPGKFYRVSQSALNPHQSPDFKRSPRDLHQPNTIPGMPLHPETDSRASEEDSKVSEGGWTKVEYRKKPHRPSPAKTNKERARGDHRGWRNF
FYN, sequence (P06241 whole entry): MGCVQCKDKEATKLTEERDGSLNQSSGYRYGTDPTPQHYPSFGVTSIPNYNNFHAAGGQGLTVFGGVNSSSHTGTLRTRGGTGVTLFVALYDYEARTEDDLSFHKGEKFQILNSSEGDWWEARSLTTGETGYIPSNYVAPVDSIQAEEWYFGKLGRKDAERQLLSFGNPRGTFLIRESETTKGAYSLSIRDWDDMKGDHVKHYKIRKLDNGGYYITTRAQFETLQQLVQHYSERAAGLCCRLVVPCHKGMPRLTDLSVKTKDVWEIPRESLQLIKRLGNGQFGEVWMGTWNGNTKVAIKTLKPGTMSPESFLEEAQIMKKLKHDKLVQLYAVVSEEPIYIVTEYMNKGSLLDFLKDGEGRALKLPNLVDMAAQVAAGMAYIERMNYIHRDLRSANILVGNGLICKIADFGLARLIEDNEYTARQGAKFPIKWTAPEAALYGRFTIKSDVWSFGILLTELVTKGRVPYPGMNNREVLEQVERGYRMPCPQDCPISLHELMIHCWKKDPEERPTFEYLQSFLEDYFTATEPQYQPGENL
p38b, sequence (Q15759 whole entry): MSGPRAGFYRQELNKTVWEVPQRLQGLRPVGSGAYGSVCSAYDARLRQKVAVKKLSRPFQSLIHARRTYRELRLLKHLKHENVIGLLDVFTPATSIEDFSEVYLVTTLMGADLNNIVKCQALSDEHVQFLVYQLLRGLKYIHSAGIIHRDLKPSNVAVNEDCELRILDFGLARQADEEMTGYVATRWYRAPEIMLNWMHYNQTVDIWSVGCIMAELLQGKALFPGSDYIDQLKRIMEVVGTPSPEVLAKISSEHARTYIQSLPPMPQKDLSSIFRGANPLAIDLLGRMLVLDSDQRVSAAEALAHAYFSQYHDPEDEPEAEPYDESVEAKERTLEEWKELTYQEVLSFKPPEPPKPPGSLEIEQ
DDR1, sequence (Q08345 19-913): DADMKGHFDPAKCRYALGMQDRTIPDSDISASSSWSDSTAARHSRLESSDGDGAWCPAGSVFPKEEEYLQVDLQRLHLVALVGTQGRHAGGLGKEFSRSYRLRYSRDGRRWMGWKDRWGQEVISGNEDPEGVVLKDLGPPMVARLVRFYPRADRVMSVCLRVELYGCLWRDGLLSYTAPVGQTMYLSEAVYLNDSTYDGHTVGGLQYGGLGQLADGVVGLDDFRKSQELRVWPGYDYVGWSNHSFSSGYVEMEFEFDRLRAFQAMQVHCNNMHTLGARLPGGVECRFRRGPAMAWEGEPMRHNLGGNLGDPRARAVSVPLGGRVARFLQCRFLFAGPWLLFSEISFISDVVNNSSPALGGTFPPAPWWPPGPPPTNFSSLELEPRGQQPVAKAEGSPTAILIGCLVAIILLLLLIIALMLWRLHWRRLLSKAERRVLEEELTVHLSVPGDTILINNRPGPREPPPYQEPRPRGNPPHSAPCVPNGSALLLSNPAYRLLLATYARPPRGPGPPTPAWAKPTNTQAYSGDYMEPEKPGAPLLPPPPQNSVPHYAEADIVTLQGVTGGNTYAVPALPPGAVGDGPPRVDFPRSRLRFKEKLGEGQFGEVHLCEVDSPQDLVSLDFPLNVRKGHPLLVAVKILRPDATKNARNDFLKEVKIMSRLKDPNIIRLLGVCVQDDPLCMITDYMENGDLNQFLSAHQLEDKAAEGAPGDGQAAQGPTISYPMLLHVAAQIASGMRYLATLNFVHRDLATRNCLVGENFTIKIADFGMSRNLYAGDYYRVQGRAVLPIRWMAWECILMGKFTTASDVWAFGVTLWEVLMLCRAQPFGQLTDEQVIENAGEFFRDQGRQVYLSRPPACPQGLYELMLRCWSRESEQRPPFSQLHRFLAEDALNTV
BMX, sequence (P51813 whole entry): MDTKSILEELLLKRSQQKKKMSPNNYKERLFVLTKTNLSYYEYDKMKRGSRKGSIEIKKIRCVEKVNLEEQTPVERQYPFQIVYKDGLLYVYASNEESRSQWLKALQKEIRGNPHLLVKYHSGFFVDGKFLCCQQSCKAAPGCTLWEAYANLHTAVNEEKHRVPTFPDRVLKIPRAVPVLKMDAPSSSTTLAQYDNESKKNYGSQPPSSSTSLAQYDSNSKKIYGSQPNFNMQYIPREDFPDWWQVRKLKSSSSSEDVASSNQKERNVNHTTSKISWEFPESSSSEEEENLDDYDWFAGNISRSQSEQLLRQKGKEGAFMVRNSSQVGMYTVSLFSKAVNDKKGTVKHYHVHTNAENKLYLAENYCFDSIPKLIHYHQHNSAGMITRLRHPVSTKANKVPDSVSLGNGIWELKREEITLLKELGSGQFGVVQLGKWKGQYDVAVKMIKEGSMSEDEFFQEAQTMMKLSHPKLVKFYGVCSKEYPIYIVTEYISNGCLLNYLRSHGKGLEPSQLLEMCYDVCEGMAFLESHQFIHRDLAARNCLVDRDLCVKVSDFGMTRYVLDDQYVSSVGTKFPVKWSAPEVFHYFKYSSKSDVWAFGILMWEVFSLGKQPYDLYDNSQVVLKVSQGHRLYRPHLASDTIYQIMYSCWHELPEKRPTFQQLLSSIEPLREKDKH
FLT1, sequence (P17948 27-1338): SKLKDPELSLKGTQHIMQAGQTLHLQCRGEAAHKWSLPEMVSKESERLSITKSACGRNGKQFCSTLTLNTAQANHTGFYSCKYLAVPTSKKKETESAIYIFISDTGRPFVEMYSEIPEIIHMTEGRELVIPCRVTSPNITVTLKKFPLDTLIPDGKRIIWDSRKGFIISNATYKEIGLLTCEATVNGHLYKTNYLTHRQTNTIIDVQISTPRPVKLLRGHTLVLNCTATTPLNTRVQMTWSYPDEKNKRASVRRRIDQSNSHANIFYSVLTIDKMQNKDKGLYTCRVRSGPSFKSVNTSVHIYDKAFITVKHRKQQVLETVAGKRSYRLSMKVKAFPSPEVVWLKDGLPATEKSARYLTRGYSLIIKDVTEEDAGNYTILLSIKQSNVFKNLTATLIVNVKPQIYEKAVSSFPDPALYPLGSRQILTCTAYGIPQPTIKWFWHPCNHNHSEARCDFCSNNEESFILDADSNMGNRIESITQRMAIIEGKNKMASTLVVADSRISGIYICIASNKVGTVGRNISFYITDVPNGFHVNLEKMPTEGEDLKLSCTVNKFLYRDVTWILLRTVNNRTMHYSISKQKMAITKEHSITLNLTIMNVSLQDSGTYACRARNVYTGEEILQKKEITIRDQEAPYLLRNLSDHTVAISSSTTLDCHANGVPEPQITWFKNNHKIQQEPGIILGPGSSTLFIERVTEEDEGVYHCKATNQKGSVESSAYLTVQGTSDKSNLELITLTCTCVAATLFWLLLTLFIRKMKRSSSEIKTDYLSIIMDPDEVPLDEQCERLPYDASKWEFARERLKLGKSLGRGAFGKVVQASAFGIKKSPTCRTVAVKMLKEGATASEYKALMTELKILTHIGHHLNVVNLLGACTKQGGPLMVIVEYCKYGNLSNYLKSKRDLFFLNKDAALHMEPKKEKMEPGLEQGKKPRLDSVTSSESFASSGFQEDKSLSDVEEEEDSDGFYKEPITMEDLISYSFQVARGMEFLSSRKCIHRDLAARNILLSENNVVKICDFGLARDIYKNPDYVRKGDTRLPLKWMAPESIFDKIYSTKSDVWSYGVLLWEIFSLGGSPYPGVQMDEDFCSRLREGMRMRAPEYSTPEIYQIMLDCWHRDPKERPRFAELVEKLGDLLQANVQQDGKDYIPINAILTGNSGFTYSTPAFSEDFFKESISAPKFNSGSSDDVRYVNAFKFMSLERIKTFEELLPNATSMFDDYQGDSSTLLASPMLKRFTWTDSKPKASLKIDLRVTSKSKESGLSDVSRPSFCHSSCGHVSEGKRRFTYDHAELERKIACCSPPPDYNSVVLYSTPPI
SRMS, sequence (Q9H3Y6 whole entry): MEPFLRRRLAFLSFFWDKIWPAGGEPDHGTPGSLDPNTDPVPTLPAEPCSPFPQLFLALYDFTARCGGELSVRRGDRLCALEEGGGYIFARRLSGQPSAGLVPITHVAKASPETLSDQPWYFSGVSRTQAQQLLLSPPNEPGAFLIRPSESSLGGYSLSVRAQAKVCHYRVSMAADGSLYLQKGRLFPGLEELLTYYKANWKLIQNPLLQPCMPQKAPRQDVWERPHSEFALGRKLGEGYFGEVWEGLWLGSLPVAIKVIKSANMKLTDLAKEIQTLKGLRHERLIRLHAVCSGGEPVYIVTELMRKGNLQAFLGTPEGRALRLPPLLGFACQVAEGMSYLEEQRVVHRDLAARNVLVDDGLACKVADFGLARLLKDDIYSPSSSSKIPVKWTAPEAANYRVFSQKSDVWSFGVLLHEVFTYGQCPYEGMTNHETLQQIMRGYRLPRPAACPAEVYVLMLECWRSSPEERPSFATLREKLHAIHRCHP

- IC50 (ACK1): 100 to 1000 nM
- GI50 (OCI-AML3 (N-Ras Q61L)): < 0.5 µM
- inhibition at 1 µM (ABL2): ≥ 70%
- inhibition at 1 µM (BLK): ≥ 70%
- inhibition at 1 µM (BMX): ≥ 70%
- inhibition at 1 µM (BRK): ≥ 70%
- inhibition at 1 µM (c-Src): ≥ 70%
- inhibition at 1 µM (CSK): ≥ 70%
- inhibition at 1 µM (DDR1): ≥ 70%
- inhibition at 1 µM (DDR2): ≥ 70%
- inhibition at 1 µM (EPHA2): ≥ 70%
- inhibition at 1 µM (EPHA3): ≥ 70%
- inhibition at 1 µM (EPHA4): ≥ 70%
- inhibition at 1 µM (EPHA5): ≥ 70%
- inhibition at 1 µM (EPHA7): ≥ 70%
- inhibition at 1 µM (EPHB1): ≥ 70%
- inhibition at 1 µM (EPHB2): ≥ 70%
- inhibition at 1 µM (EPHB3): ≥ 70%
- inhibition at 1 µM (EPHB4): ≥ 70%
- inhibition at 1 µM (FLT1): ≥ 70%
- inhibition at 1 µM (FLT4): ≥ 70%
- inhibition at 1 µM (FYN): ≥ 70%
- inhibition at 1 µM (JAK2): ≥ 70%
- inhibition at 1 µM (KDR): ≥ 70%
- inhibition at 1 µM (LCK): ≥ 70%
- inhibition at 1 µM (LYN): ≥ 70%
- inhibition at 1 µM (p38b): ≥ 70%
- inhibition at 1 µM (RAF1): ≥ 70%
- inhibition at 1 µM (RIPK3): ≥ 70%
- inhibition at 1 µM (SRMS): ≥ 70%
- inhibition at 1 µM (TIE2): ≥ 70%
- inhibition at 1 µM (ZAK): ≥ 70%
SMILES: Cc1ccc(NC(=O)c2cccc(C(F)(F)F)c2)cc1-c1cc2cnc(N)nc2c(=O)[nH]1 [Compound No. 55, N-(3-(2-amino-8-oxo-7,8-dihydropyrido[3,4-d]pyrimidin-6-yl)-4-methylphenyl)-3-(trifluoromethyl)benzamide]
